Measured values taken from patent publication US4267185A, “Antidepressant pyrrolylpiperidines, their pharmaceutical compositions and method of use” (E. I. Du Pont de Nemours and Company, priority 1980, dated 1981).
Where two headings read alike, the source gives them in different places.

Tested on: tetrabenazine-induced sedation and depression in mice
Assay: Antagonism of tetrabenazine-induced depression in mice, orally, at 1 hour post-drug
Format: in vivo, female white mice (Carworth CF1 S)
Conditions: Mus musculus
Method: This mouse test is predictive of human antidepressant response (Everett, "The Dopa Response Potentiation Test and Its Use in Screening for Antidepressant Drugs," pp. 164 in "Antidepressant Drugs" (Proceedings of the First International Symposium), S. Garattini and M. N. G. Dukes, eds., 1967).
Groups of 10 Carworth CF1 S female mice, 18-21 g each, were fasted 1.5 hours and were intubated with antagonist compounds at oral doses of 0, 0.33, 1, 3, 9, 27, and 81 mg/kg in 0.20 ml of 1% Methocel-1.25% Tween 80. The mice were challenged 30 minutes later with tetrabenazine (as the methanesulfonate), 32 mg/kg intraperitoneally (dissolved in 0.20 ml 0.05 M KCl at pH 2.0). One hour after antagonist (30 minutes after tetrabenazine), the mice were examined for signs of exploratory activity and ptosis (eyelid closure). Normal exploratory activity (relief from sedation) was recorded when a mouse lifted by the tail from a group of 10 in a testing box and placed on a stainless testing box lid (12.5"×8"with 0.33" mesh) either turned its head horizontally 30° in both directions or moved to the edge of the screen within 10 seconds after being placed on the screen. Relief from ptosis was recorded when exactly two seconds after placing the mouse facing the observer, lid closure was less than 50% in both eyes.

[1] = po, 1 h, read-out: ED50 for prevention of exploratory loss
[2] = po, 1 h, read-out: ED50 for prevention of ptosis

Row | Structure (SMILES) | ED50 (oral, 1 hour post-drug (30 min after tetrabenazine 32 mg/kg i.p.), exploratory activity, read-out: ED50 for prevention of exploratory loss) [mg/kg] | ED50 (oral, 1 hour post-drug (30 min after tetrabenazine 32 mg/kg i.p.), lid closure less than 50% in both eyes, read-out: ED50 for prevention of ptosis) [mg/kg] | ED50 [1] [mg/kg] | ED50 [2] [mg/kg]
1 | CN(C)CCC=C1c2ccccc2CCc2ccccc21 [Amitriptyline, reference compound] | 3.5 | 1.4 | – | –
2 | CN1CCC(O)(c2cccn2C)CC1 [Example 1, 1-Methyl-4-(1-methylpyrrol-2-yl)-4-piperidinol] | – | – | 1.8 | 1.1
3 | CN1CC=C(c2cccn2C)CC1.Cl [Example 2, 1,2,3,6-Tetrahydro-1-methyl-4-(1-methylpyrrol-2-yl)pyridine, hydrochloride salt] | – | – | 1.4 | 0.8
